Key:
[1] = tested on: CCR5 knock-in (KICCR5) mice; assay: hypoxic pulmonary hypertension in CCR5 knock-in mice (chronic hypoxia 9% O2); format: in vivo; conditions: Maraviroc 200 mg/kg/day
From the text: To assess the inhibitory effects of the CCR5 antagonist Maraviroc on development of pulmonary hypertension in mice, the inventors used CCR5 knock-in mice in which the murine CCR5 gene was replaced by the human CCR5 gene. CCR5 knock-in mice were used in these experiments because Maraviroc binds to the human CCR5 but not to the murine CCR5 protein.
Male mice (12 months old), were exposed to chronic hypoxia (9% O2) in a ventilated chamber (Biospherix, New York, N.Y.). Mice were anesthetized with ketamine (60 mg/Kg) and xylazine (10 mg/Kg) intraperitoneally. A 26-gauge needle connected to a pressure transducer was inserted into the right ventricle, and right ventricular systolic pressure (RVSP) was recorded. After the assessment of hemodynamic parameters, all mice were sacrificed by cardiac puncture and exsanguinations. The heart was dissected out and weighed for calculation of the Fulton index (ratio of right ventricular free wall weight over the sum of the septum plus left ventricular free wall weights: RV/LV+S). The left lung was inflated and fixed with formalin buffer for assessments of pulmonary vessel muscularization and of PA-SMC proliferation using Ki67 immunostaining

[2] = tested on: wild-type (WT) mice; assay: hypoxic pulmonary hypertension in wild-type mice (chronic hypoxia 9% O2); format: in vivo; conditions: Maraviroc 200 mg/kg/day
[3] = tested on: human pulmonary-artery smooth muscle cells (PA-SMCs); assay: CCL5-stimulated proliferation of human pulmonary-artery smooth muscle cells (MTT assay); format: cell-based; conditions: 48 h with CCL5 and Maraviroc, FIG. 4
Experimental: The effects of Maraviroc on cell proliferation was investigated in primary cultures of human pulmonary-artery smooth muscle cells (PA-SMCs) collected from lung tissue samples of patients undergoing lung resection surgery. Cell proliferation was assessed by using the tetrazolium salt (MTT) assay (Sigma, Lyon, France) during conditions of stimulation with the CCR5 ligand CCL5. Human PA-SMCs were seeded onto 24-well for 48 h. PA-SMCs were synchronized for 48 h in media without serum prior cell proliferation stimulation in presence of CCL5 or CCL5 and Maraviroc. 48 hours after, MTT (100 μg/mL) was added and incubated for 4 h. The media was removed and crystals formed were dissolved in […] of dimethylsulfoxide (DMSO, Sigma) and the mixture was shaken for a few minutes to achieve complete dissolution. Aliquots (200 μL) of the resulting solutions were transferred to 96-well plates and absorbance was recorded at 520 nm using the Microplate Spectrophotometer System.

With `Cc1nnc(C(C)C)n1[C@@H]1C[C@H]2CC[C@@H](C1)N2CC[C@H](NC(=O)C1CCC(F)(F)CC1)c1ccccc1` [Maraviroc, 4,4-difluoro-N-{(1S)-3-[3-(3-isopropyl-5-methyl-4H-1,2,4-triazol-4-yl)-8-azabicyclo[3.2.1]oct-8-yl]-1-phenylpropyl}cyclohexanecarboxamide] the “Right ventricular systolic pressure (RVSP)” value ([1]; FIG. 3A) was “reduction”, the Fulton index ([1]; FIG. 3B) was “reduction” and the “% of muscularized vessels” value ([1]; FIG. 3C) was “reduction”. For the same molecule, the “proliferative cells detected by ki67 immunostaining” value ([1]; FIG. 3D) was “reduction”, the “Right ventricular systolic pressure (RVSP)” value ([2]; FIG. 3A) was “not in WT mice” and the “proliferative cells detected by ki67 immunostaining” value ([2]; FIG. 3D) was “not in WT mice”. For the same molecule, the “Proliferation of human pulmonary artery smooth muscle cells stimulated by the CCR5 ligand CCL5” value [3] was “significantly reduced”.

Source: US20140271680A1, “METHODS AND PHARMACEUTICAL COMPOSITIONS FOR TREATMENT OF PULMONARY HYPERTENSION” (UNIVERSITE PARIS-EST CRETEIL VAL DE MARNE, priority 2011, published 2014)
